Results from patent US20040102454A1, “Phenylahistin and the phenylahistin analogs, a new class of anti-tumor compounds” (priority 1998, published 2004).
Values after ≈ are worked out from the molar mass of the structure shown.

What was measured:
Type in all cases: cell-based
HBC-4 = assay: HCC panel assay, sulforhodamine B; details: HBC-4, Breast, (−)-PLH content 24.1%
Protocol: (§1) The antitumor activity of PLH was evaluated by the Human Cancer Cell Line Panel (HCC panel) assay, see Yamori T., Jap. J Cancer Chemother., (1997), 24, 129-35. This HCC panel consists of 38 tumor cell lines including 7 lung cancer, 6 stomach, 6 colon, 5 ovary, 6 central nerve system, 5 breast, 2 kidney and 1 melanoma cell lines. Each tumor cell was seeded in 96-well tissue culture plates and incubated overnight. Various concentrations (5 doses; final 10^−4, 10^−5, 10^−6, 10^−7 and 10^−8 M) of PLH were added, and the cells were incubated for 48 hours. […] All mice were obtained from Japan SLC (Shizuoka, Japan), P388 leukemia cells were obtained from Dainippon Pharmaceuticals Inc. (Osaka, Japan), Lewis Lung Carcinoma from Riken Cell Bank (Tsukuba, Japan), and Colon 26 cells from the National Cancer Center, Japan (Tokyo, Japan).

NCI-H23 = assay: HCC panel assay, sulforhodamine B; details: NCI-H23, Lung, (−)-PLH content 24.1%
Protocol: as §1

MKN1 = assay: HCC panel assay, sulforhodamine B; details: MKN1, Stomach, (−)-PLH content 24.1%
Protocol: as §1

St-4 = assay: HCC panel assay, sulforhodamine B; details: St-4, Stomach, (−)-PLH content 24.1%
Protocol: as §1

SNB-78 = assay: HCC panel assay, sulforhodamine B; details: SNB-78, CNS, (−)-PLH content 24.1%
Protocol: as §1

U251 = assay: HCC panel assay, sulforhodamine B; details: U251, CNS, (−)-PLH content 24.1%
Protocol: as §1

MCF-7 = assay: HCC panel assay, sulforhodamine B; details: MCF-7, Breast, (−)-PLH content 24.1%
Protocol: as §1

OVCAR-3 = assay: HCC panel assay, sulforhodamine B
Protocol: as §1

DMS114 = assay: HCC panel assay, sulforhodamine B; details: DMS114, Lung, (−)-PLH content 24.1%
Protocol: as §1

KM-12 = assay: HCC panel assay, sulforhodamine B; details: KM-12, Colon, (−)-PLH content 24.1%
Protocol: as §1

MKN74 = assay: HCC panel assay, sulforhodamine B; details: MKN74, Stomach, (−)-PLH content 24.1%
Protocol: as §1

HCT-116 = assay: HCC panel assay, sulforhodamine B; details: HCT-116, Colon, (−)-PLH content 24.1%
Protocol: as §1

HT-29 = assay: HCC panel assay, sulforhodamine B; details: HT-29, Colon, (−)-PLH content 24.1%
Protocol: as §1

ACHN = assay: HCC panel assay, sulforhodamine B; details: Renal, (−)-PLH content 24.1%
Protocol: as §1

[1] = system: A-549 cells derived from human lung cancer; assay: Cell proliferation inhibition, MTT (Example 2); details: A549, read-out: IC50 (concentration that inhibited cell proliferation 50%), A-549, 48 hours
Protocol: Into each well of a 96-well microtiter plate, 100 μl of A-549 cells derived from human lung cancer prepared to 10^5 cells/ml in a culture medium obtained by adding 10% bovine fetus serum to EMEM culture medium (Nissui Seiyaku Co., Ltd.) having antitumor effect against A-549 cells derived from human lung cancer was placed. Methanol solution of racemic NSCL-96F037 obtained as in Example 1 was added to the wells of the uppermost row, specimens were diluted by the half-log dilution method and added, and the plate was incubated in a carbon dioxide gas incubator at 37° C. for 48 hours. The result was added in lots of 10 μl with MTT reagent (3-(4,5-dimethyl-2-thiazole)-2,5-diphenyl-2H-tetra bromide) (1 mg/ml•PBS), followed by incubation in a carbon dioxide gas incubator at 37° C. for 6 hours. The culture medium was discarded and the crystal of produced in the cells was dissolved in 100 μl/well of dimethylsulfoxide. Absorption of 595 nm light was then measured with a microplate reader.

[2] = system: colibacillus strain JM109; assay: Antimicrobial test, filter paper agar flat plate method; details: 100 μg of specimen on 9 mm filter paper
Protocol: (§2) Using colibacillus strain JM109 as a gram-negative bacterium, Bacillus natto as a […] and Aspergillus niger IFO6341 as a mold, the following antimicrobial test was conducted by the filter paper agar flat plate method, wherein 100 μg of specimen was placed on 9 mm filter paper, dried in air, and standard agar culture medium was used for bacteria and potato dextrose agar culture medium for mold. […] An antimicrobial test was further conducted by the liquid culture medium dilution method using the yeast strain Saccharomyces cerevisise HF7C.

[3] = system: Aspergillus niger IFO6341; assay: as above; details: 100 μg of specimen on 9 mm filter paper
Protocol: as §2

Bacillus natto = assay: as above; details: 100 μg of specimen on 9 mm filter paper
Protocol: as §2

[4] = Homo sapiens, read-out: GL50 (the source's name)
[5] = Homo sapiens, read-out: LC50 (the source's name)

## C=CC(C)(C)c1[nH]cnc1/C=C1\NC(=O)[C@H](Cc2ccccc2)NC1=O (racemic) [PLH, phenylahistin]
HBC-4
  TGI: >100 µM
HBC-4; Homo sapiens, HBC4, read-out: GL50 (the source's name)
  IC50: 0.46 µM
HBC-4; Homo sapiens, HBC4, read-out: LC50 (the source's name)
  CC50: > 100 µM
NCI-H23; [4]
  IC50: 0.91 µM
NCI-H23; [5]
  CC50: > 100 µM
NCI-H23
  TGI: 92 µM
MKN1; Homo sapiens, MKN-1, read-out: GL50 (the source's name)
  IC50: 0.4 µM
MKN1; Homo sapiens, MKN-1, read-out: LC50 (the source's name)
  CC50: > 100 µM
MKN1
  TGI: 21 µM
St-4; [4]
  IC50: 40 µM
St-4; [5]
  CC50: > 100 µM
St-4
  TGI: >100 µM
SNB-78; [4]
  IC50: 1.3 µM
SNB-78; [5]
  CC50: > 100 µM
SNB-78
  TGI: >100 µM
U251; Homo sapiens, U-251, read-out: GL50 (the source's name)
  IC50: 0.44 µM
U251; Homo sapiens, U-251, read-out: LC50 (the source's name)
  CC50: > 100 µM
U251
  TGI: 10 µM
MCF-7; Homo sapiens, MCF7, read-out: GL50 (the source's name)
  IC50: 0.47 µM
MCF-7; Homo sapiens, MCF7, read-out: LC50 (the source's name)
  CC50: > 100 µM
MCF-7
  TGI: >100 µM
OVCAR-3; Homo sapiens, OVCAR-3, read-out: LC50
  CC50: > 100 µM
OVCAR-3; Homo sapiens, OVCAR-3, Ovary, (−)-PLH content 24.1%, read-out: GL50 (the source's name)
  IC50: 3 µM
OVCAR-3; OVCAR-3, Ovary, (−)-PLH content 24.1%
  TGI: >100 µM
DMS114
  TGI: 2.4 µM
DMS114; Homo sapiens, DMS-114, read-out: GL50 (the source's name)
  IC50: 0.33 µM
DMS114; Homo sapiens, DMS-114, read-out: LC50 (the source's name)
  CC50: > 100 µM
KM-12; Homo sapiens, KM12, read-out: GL50 (the source's name)
  IC50: 0.38 µM
KM-12; Homo sapiens, KM12, read-out: LC50 (the source's name)
  CC50: > 100 µM
KM-12
  TGI: >100 µM
MKN74; Homo sapiens, MKN-74, read-out: GL50 (the source's name)
  IC50: 0.48 µM
MKN74; Homo sapiens, MKN-74, read-out: LC50 (the source's name)
  CC50: > 100 µM
MKN74
  TGI: >100 µM
HCT-116
  TGI: >100 µM
HCT-116; [4]
  IC50: 0.48 µM
HCT-116; [5]
  CC50: > 100 µM
HT-29
  TGI: >100 µM
HT-29; [4]
  IC50: 0.4 µM
HT-29; [5]
  CC50: > 100 µM
ACHN; [4]
  IC50: 28 µM
ACHN; [5]
  CC50: > 100 µM
ACHN
  TGI: >100 µM
[1]
  IC50: 0.3 µg/mL (≈ 0.856 µM)
[2]
  antimicrobial activity: No antimicrobial activity
[3]
  antimicrobial activity: No antimicrobial activity
Bacillus natto
  antimicrobial activity: No antimicrobial activity
